In patent US10597388B2, “Pyridazinone herbicides” (FMC CORPORATION, priority 2014, dated 2020):

Tests used:
Assay in all cases: Test D controlled growth environment herbicide test, pre- and postemergence
Assay type in all cases: in vivo
[1] = tested on: blackgrass (Alopecurus myosuroides)
How it was run: (§1)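 Pre-emergence: seeds sown in silt loam soil were sprayed with compound in a non-phytotoxic solvent mix containing surfactant. Post-emergence: plants at 2 to 18 cm (1- to 4-leaf stage) in peat moss/vermiculite medium got the same formulation. Visual 0–100 rating versus controls after 14 to 21 d.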

[2] = tested on: field poppy (Papaver rhoeas)
How it was run: as §1

[3] = tested on: barley, winter (winter barley, Hordeum vulgare)
How it was run: as §1

kochia (Kochia scoparia) = tested on: kochia (Kochia scoparia)
How it was run: as §1

[4] = tested on: wheat, spring (spring wheat, Triticum aestivum)
How it was run: as §1

[5] = tested on: radish, wild (wild radish, Raphanus raphanistrum)
How it was run: as §1

[6] = tested on: oat, wild (wild oat, Avena fatua)
How it was run: as §1

[7] = tested on: speedwell (bird's-eye speedwell, Veronica persica)
How it was run: as §1

[8] = tested on: bluegrass (annual bluegrass, Poa annua)
How it was run: as §1

[9] = tested on: mustard, wild (wild mustard, Sinapis arvensis)
How it was run: as §1

[10] = tested on: Russian thistle (Salsola kali)
How it was run: as §1

[11] = tested on: barley, spring (spring barley, Hordeum vulgare)
How it was run: as §1

[12] = tested on: pigweed (Amaranthus retroflexus)
How it was run: as §1

[13] = Postemergence, 31 g ai/ha, scale 0 to 100 (0 no effect, 100 complete control)
[14] = Postemergence, 125 g ai/ha, visual rating on scale 0 (no effect) to 100 (complete control), 14 to 21 d
[15] = Postemergence, 250 g ai/ha, scale 0 to 100 (0 no effect, 100 complete control)
[16] = Preemergence, 62 g ai/ha, scale 0 to 100 (0 no effect, 100 complete control)
[17] = Preemergence, 125 g ai/ha, scale 0 to 100 (0 no effect, 100 complete control)
[18] = Preemergence, 250 g ai/ha, scale 0 to 100, 0 no effect, 100 complete control
[19] = postemergence, 62 g ai/ha, scale 0 to 100, 0 no effect, 100 complete control

Cc1ccc2sc(Br)c(-c3c(O)c(C)nn(C)c3=O)c2c1 [Compound 79]
100: Plant response rating (scale of 0 to 100), Field Poppy ([2]; Preemergence, 31 g ai/ha) | Plant response rating, Field Poppy [2, 16] | Plant response rating, Field Poppy [2, 17] | Plant response rating, Field Poppy [2, 18] | Plant response rating, Kochia (kochia (Kochia scoparia); [17]) | Plant response rating, Russian Thistle [10, 18] | Pigweed plant response rating [12, 13] | Plant response rating, Pigweed [12, 14] | Plant response rating, Pigweed [12, 15] | Plant response rating, Pigweed [12, 16] | Plant response rating, Pigweed [12, 17] | Plant response rating, Pigweed [12, 18] | Plant response rating, Pigweed [12, 19]
55: Plant response rating, Blackgrass [1, 17] | Plant response rating, Kochia (kochia (Kochia scoparia); [16]) | Plant response rating, Radish, Wild [5, 18] | Plant response rating, Russian Thistle [10, 14] | Plant response rating, Russian Thistle [10, 19]
10: Blackgrass plant response rating [1, 13] | Plant response rating, Barley, Winter [3, 18] | Plant response rating, Bluegrass [8, 14] | Plant response rating (scale of 0 to 100), Bluegrass ([8]; Preemergence, 31 g ai/ha) | Plant response rating, Bluegrass [8, 16] | Plant response rating, Bluegrass [8, 19] | Plant response rating, Mustard, Wild [9, 18] | Plant response rating, Barley, Spring [11, 15]
98: Plant response rating, Field Poppy [2, 15]
30: Plant response rating, Speedwell [7, 19]
70: Kochia plant response rating (kochia (Kochia scoparia); [13]) | Oat, Wild plant response rating [6, 13] | Plant response rating, Oat, Wild [6, 19] | Plant response rating, Russian Thistle [10, 16]
90: Plant response rating, Oat, Wild [6, 18]
85: Plant response rating, Field Poppy [2, 19] | Plant response rating, Kochia (kochia (Kochia scoparia); [14]) | Plant response rating, Oat, Wild [6, 15] | Plant response rating, Oat, Wild [6, 17]
60: Plant response rating, Blackgrass [1, 18] | Plant response rating (scale of 0 to 100), Kochia (kochia (Kochia scoparia); Preemergence, 31 g ai/ha)
5: Plant response rating, Barley, Winter [3, 15] | Plant response rating, Wheat, Spring [4, 15] | Bluegrass plant response rating [8, 13] | Plant response rating, Mustard, Wild [9, 17] | Plant response rating, Barley, Spring [11, 14] | Plant response rating, Barley, Spring [11, 19]
45: Plant response rating, Blackgrass [1, 16] | Plant response rating, Radish, Wild [5, 17] | Plant response rating (scale of 0 to 100), Pigweed ([12]; Preemergence, 31 g ai/ha)
20: Plant response rating (scale of 0 to 100), Blackgrass ([1]; Preemergence, 31 g ai/ha) | Plant response rating, Blackgrass [1, 19] | Mustard, Wild plant response rating [9, 13] | Plant response rating, Mustard, Wild [9, 19]
65: Plant response rating, Radish, Wild [5, 15] | Plant response rating, Speedwell [7, 15] | Plant response rating, Russian Thistle [10, 15]
0: Barley, Winter plant response rating [3, 13] | Plant response rating, Barley, Winter [3, 14] | Plant response rating (scale of 0 to 100), Barley, Winter ([3]; Preemergence, 31 g ai/ha) | Plant response rating, Barley, Winter [3, 16] | Plant response rating, Barley, Winter [3, 17] | Plant response rating, Barley, Winter [3, 19] | Wheat, Spring plant response rating [4, 13] | Plant response rating, Wheat, Spring [4, 14] | Plant response rating (scale of 0 to 100), Wheat, Spring ([4]; Preemergence, 31 g ai/ha) | Plant response rating, Wheat, Spring [4, 16] | Plant response rating, Wheat, Spring [4, 17] | Plant response rating, Wheat, Spring [4, 18] | Plant response rating, Wheat, Spring [4, 19] | Radish, Wild plant response rating [5, 13] | Plant response rating, Radish, Wild [5, 14] | Plant response rating, Radish, Wild [5, 19] | Plant response rating (scale of 0 to 100), Mustard, Wild ([9]; Preemergence, 31 g ai/ha) | Plant response rating (scale of 0 to 100), Russian Thistle ([10]; Preemergence, 31 g ai/ha) | Barley, Spring plant response rating [11, 13] | Plant response rating (scale of 0 to 100), Barley, Spring ([11]; Preemergence, 31 g ai/ha) | Plant response rating, Barley, Spring [11, 16] | Plant response rating, Barley, Spring [11, 17] | Plant response rating, Barley, Spring [11, 18]
35: Plant response rating, Speedwell [7, 14] | Plant response rating, Bluegrass [8, 18]
80: Plant response rating, Kochia (kochia (Kochia scoparia); [19]) | Plant response rating, Oat, Wild [6, 14] | Plant response rating (scale of 0 to 100), Oat, Wild ([6]; Preemergence, 31 g ai/ha) | Plant response rating, Oat, Wild [6, 16]
75: Field Poppy plant response rating [2, 13] | Plant response rating, Russian Thistle [10, 17]
40: Plant response rating, Blackgrass [1, 14] | Plant response rating, Mustard, Wild [9, 14]
95: Plant response rating, Field Poppy [2, 14] | Plant response rating, Kochia (kochia (Kochia scoparia); [15]) | Plant response rating, Kochia (kochia (Kochia scoparia); [18])
25: Plant response rating (scale of 0 to 100), Radish, Wild ([5]; Preemergence, 31 g ai/ha) | Plant response rating, Radish, Wild [5, 16] | Speedwell plant response rating [7, 13] | Plant response rating, Bluegrass [8, 17]
50: Plant response rating, Blackgrass [1, 15] | Plant response rating, Mustard, Wild [9, 15] | Russian Thistle plant response rating [10, 13]
15: Plant response rating, Bluegrass [8, 15] | Plant response rating, Mustard, Wild [9, 16]
